Data reported in PubChem BioAssay (NCI).
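Each compound was tested at five concentrations against cells in 96-well plates for 48 hours. TGI is the concentration that stops growth completely.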

What was measured:
Assay in all cases: NCI anticancer screen, dose series, 48 h
LXFL 529 NSCLC = tested on: LXFL 529 NSCLC
KM12 colon = tested on: KM12 colon
DMS 114 small cell lung = tested on: DMS 114 small cell lung
IGROV1 ovarian = tested on: IGROV1 ovarian
A498 renal = tested on: A498 renal
SN12C renal = tested on: SN12C renal
EKVX NSCLC = tested on: EKVX NSCLC
NCI-H226 lung = tested on: NCI-H226 lung
ACHN renal = tested on: ACHN renal
NCI-H522 lung = tested on: NCI-H522 lung
MALME-3M melanoma = tested on: MALME-3M melanoma
K-562 leukemia = tested on: K-562 leukemia
MOLT-4 leukemia = tested on: MOLT-4 leukemia
SNB-75 CNS = tested on: SNB-75 CNS
SK-MEL-2 melanoma = tested on: SK-MEL-2 melanoma
HOP-62 NSCLC = tested on: HOP-62 NSCLC
KM20L2 colon = tested on: KM20L2 colon
HOP-18 NSCLC = tested on: HOP-18 NSCLC
SF-268 CNS = tested on: SF-268 CNS
SK-MEL-28 melanoma = tested on: SK-MEL-28 melanoma
A549 NSCLC = tested on: A549 NSCLC
UACC-62 melanoma = tested on: UACC-62 melanoma
UACC-257 melanoma = tested on: UACC-257 melanoma
DMS 273 small cell lung = tested on: DMS 273 small cell lung
HCC-2998 colon = tested on: HCC-2998 colon
SNB-78 CNS = tested on: SNB-78 CNS
DLD-1 colon = tested on: DLD-1 colon
UO-31 renal = tested on: UO-31 renal
RXF 393 renal = tested on: RXF 393 renal
HCT-15 colon = tested on: HCT-15 colon
COLO 205 colon = tested on: COLO 205 colon
OVCAR-8 ovarian = tested on: OVCAR-8 ovarian
SK-OV-3 ovarian = tested on: SK-OV-3 ovarian
OVCAR-4 ovarian = tested on: OVCAR-4 ovarian
SK-MEL-5 melanoma = tested on: SK-MEL-5 melanoma
NCI-H460 lung = tested on: NCI-H460 lung
TK-10 renal = tested on: TK-10 renal
HL-60(TB) leukemia = tested on: HL-60(TB) leukemia
SF-539 CNS = tested on: SF-539 CNS
M14 melanoma = tested on: M14 melanoma
OVCAR-3 ovarian = tested on: OVCAR-3 ovarian
RPMI-8226 leukemia = tested on: RPMI-8226 leukemia
HCT-116 colon = tested on: HCT-116 colon
U251 CNS = tested on: U251 CNS
786-0 renal = tested on: 786-0 renal
M19-MEL melanoma = tested on: M19-MEL melanoma
SF-295 CNS = tested on: SF-295 CNS
NCI-H23 lung = tested on: NCI-H23 lung
CCRF-CEM leukemia = tested on: CCRF-CEM leukemia
SW-620 colon = tested on: SW-620 colon
LOX IMVI melanoma = tested on: LOX IMVI melanoma
OVCAR-5 ovarian = tested on: OVCAR-5 ovarian
SR leukemia = tested on: SR leukemia
CAKI-1 renal = tested on: CAKI-1 renal
HT29 colon = tested on: HT29 colon
SNB-19 CNS = tested on: SNB-19 CNS

Measured: TGI

COc1ncn(C2C=C(CO)C(O)C2O)c(=O)n1 (stereo unspecified)
not listed: M19-MEL melanoma | SF-295 CNS | NCI-H23 lung | CCRF-CEM leukemia | SW-620 colon | LOX IMVI melanoma | OVCAR-5 ovarian | SR leukemia | CAKI-1 renal | HT29 colon | SNB-19 CNS
> 100 µM: all other assays above

COC(=O)C1=C(SC)SC2(C(=O)OC)C3C=C(C)C4C(N13)C42C(=O)OC (stereo unspecified)
not listed: KM12 colon | A498 renal | HOP-18 NSCLC | SNB-78 CNS | OVCAR-4 ovarian
> 100 µM: all other assays above
